Where two headings read alike, the source gives them in different places.
Tests used:
[1] = molecular target: 5-ht1e (Homo sapiens, UniProt P28566); assay: PDSP radioligand binding, serotonin receptor 5-HT1E
Excerpt: (§1) [17] and http://pdsp.med.unc.edu/UNC-CH%20Protocol%20Book.pdf.

[2] = molecular target: T1, 5-HT2C (Homo sapiens, UniProt P28335); assay: PDSP radioligand binding, serotonin receptor 5-HT2C
T1 sequence (P28335 33-458): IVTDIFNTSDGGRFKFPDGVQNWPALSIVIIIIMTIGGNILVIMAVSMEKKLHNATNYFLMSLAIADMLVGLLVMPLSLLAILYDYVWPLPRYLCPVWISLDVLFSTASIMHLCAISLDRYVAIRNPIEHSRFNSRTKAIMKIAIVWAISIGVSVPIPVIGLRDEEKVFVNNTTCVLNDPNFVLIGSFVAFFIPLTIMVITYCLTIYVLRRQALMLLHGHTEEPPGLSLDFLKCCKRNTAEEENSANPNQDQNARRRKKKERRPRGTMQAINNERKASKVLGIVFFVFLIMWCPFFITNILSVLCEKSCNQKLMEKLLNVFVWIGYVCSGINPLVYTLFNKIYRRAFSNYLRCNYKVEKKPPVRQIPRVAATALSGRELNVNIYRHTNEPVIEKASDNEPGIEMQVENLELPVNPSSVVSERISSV
Excerpt: as §1

[3] = molecular target: 5-HT6 (Homo sapiens, UniProt P50406); assay: PDSP radioligand binding, serotonin receptor 5-HT6
Sequence of 5-HT6 (P50406 whole entry, species assumed): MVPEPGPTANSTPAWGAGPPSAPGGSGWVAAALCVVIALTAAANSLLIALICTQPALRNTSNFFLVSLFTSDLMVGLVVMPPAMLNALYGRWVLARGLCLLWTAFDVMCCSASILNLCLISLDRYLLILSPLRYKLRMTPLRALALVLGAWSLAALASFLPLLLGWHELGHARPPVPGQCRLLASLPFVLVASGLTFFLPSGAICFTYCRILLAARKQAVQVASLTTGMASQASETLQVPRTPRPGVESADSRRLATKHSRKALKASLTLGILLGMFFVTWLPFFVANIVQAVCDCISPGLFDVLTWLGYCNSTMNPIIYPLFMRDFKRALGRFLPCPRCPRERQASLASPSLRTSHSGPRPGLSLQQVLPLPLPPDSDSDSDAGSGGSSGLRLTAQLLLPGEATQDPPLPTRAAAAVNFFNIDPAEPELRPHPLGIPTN
Excerpt: as §1

[4] = molecular target: 5-HT7 (Homo sapiens, UniProt P34969); assay: PDSP radioligand binding, serotonin receptor 5-HT7
Sequence of 5-HT7 (P34969 whole entry, species assumed): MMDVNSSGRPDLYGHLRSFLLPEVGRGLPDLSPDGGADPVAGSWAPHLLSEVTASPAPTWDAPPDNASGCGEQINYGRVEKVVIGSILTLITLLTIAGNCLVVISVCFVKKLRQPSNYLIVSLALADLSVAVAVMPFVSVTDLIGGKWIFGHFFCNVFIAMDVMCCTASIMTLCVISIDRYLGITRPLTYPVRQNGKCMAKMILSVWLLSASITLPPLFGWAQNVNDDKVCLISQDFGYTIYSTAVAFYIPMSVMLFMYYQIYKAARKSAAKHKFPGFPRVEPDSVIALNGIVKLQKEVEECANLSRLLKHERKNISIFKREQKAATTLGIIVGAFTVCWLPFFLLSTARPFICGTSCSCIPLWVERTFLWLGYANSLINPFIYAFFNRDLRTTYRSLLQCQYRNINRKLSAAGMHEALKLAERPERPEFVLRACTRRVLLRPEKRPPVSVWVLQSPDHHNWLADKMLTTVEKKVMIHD
Excerpt: as §1

[5] = molecular target: A4B4 (Rattus norvegicus, UniProt P09483+P12392); assay: PDSP radioligand binding, nicotinic receptor α4 ß4
Sequence of A4B4 (P09483 31-630): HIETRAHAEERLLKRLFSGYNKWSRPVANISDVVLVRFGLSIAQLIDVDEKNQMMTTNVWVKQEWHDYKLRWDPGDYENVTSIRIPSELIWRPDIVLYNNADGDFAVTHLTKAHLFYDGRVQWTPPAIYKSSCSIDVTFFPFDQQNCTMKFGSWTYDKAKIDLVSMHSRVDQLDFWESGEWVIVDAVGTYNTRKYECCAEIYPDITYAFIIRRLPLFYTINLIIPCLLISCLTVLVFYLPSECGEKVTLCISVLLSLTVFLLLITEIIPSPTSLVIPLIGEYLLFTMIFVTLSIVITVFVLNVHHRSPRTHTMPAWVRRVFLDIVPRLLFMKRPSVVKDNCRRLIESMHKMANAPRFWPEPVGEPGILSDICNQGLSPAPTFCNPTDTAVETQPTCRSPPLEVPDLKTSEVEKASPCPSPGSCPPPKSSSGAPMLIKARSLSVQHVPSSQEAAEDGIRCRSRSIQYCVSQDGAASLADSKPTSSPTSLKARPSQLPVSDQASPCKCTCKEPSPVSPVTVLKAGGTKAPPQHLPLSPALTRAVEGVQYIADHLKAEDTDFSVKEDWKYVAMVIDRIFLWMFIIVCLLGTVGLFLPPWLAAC
Sequence of A4B4 (P12392 21-495): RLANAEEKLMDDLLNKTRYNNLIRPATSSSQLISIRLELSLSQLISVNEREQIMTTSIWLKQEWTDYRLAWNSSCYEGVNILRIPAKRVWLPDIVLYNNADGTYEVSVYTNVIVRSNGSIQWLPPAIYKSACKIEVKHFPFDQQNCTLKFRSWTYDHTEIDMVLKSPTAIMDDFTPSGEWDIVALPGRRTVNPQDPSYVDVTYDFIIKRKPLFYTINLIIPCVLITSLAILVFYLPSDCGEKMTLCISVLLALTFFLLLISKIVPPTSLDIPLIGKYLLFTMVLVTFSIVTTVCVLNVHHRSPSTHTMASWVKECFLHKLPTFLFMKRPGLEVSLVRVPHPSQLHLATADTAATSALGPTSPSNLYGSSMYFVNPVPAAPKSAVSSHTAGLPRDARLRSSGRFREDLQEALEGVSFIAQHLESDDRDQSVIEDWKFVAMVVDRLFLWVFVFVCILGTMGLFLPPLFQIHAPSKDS
Excerpt: as §1

[6] = molecular target: T2, Alpha1D (Homo sapiens, UniProt P25100); assay: PDSP radioligand binding, adrenoceptor α1D
T2 sequence (P25100 1-572): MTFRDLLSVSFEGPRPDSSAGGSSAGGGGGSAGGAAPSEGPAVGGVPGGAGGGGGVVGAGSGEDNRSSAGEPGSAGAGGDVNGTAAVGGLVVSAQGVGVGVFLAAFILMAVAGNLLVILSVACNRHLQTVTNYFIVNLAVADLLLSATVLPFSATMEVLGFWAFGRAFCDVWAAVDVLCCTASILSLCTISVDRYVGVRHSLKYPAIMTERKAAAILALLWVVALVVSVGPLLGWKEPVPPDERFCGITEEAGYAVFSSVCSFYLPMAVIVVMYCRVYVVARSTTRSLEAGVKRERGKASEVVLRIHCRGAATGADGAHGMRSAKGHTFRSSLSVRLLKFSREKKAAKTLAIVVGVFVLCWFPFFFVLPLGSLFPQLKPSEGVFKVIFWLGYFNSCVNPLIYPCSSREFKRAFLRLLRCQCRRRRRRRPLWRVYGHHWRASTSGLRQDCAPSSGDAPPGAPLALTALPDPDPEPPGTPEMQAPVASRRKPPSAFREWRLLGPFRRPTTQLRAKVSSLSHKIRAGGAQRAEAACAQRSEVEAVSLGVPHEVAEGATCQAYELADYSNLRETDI
Excerpt: as §1

[7] = molecular target: Beta2 (Homo sapiens, UniProt P07550); assay: PDSP radioligand binding, adrenoceptor ß2
Sequence of Beta2 (P07550 whole entry): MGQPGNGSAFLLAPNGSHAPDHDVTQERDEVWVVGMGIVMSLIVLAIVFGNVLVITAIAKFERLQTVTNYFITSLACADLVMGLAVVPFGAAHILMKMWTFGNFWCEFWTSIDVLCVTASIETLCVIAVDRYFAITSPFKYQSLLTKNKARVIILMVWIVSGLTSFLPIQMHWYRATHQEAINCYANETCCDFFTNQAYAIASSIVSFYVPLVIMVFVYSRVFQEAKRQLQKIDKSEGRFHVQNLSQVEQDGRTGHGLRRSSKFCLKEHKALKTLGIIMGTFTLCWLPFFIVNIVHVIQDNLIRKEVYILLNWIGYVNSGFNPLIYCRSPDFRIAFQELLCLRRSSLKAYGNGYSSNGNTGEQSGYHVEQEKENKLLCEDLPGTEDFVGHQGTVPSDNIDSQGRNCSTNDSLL
Excerpt: as §1

[8] = molecular target: CB1 (Homo sapiens, UniProt P21554); assay: PDSP radioligand binding, cannabinoid CB-1
Sequence of CB1 (P21554 whole entry, species assumed): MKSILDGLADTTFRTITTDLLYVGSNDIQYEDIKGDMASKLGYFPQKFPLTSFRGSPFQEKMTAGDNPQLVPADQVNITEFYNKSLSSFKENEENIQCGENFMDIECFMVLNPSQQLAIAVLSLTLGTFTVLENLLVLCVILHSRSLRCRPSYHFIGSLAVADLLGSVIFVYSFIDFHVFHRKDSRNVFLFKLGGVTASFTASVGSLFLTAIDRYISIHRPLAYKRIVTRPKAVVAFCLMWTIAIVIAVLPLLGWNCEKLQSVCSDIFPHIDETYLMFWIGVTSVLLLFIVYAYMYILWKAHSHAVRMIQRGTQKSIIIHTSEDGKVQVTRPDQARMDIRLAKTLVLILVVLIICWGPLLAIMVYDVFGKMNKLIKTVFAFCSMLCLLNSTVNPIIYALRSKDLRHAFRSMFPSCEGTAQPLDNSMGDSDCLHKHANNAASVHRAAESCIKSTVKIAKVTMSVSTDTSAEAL
Excerpt: as §1

[9] = molecular target: T3, D4 (Homo sapiens, UniProt P21917); assay: PDSP radioligand binding, dopamine receptor D4
T3 sequence (P21917 1-419): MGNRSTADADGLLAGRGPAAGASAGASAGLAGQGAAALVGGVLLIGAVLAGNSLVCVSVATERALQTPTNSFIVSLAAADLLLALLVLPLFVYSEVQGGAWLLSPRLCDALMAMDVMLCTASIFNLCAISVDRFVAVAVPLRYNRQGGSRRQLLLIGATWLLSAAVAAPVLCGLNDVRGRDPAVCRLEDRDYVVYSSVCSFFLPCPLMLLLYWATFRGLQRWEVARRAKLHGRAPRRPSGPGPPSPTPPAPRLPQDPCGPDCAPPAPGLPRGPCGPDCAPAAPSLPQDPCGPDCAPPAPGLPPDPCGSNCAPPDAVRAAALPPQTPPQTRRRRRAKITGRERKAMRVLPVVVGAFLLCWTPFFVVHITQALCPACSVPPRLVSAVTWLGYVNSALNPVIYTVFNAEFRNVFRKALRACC
Excerpt: as §1

[10] = molecular target: GABAA; assay: PDSP radioligand binding, GABA-A; conditions: Table S1; unit inferred
Excerpt: as §1

[11] = molecular target: T4, M5 (Homo sapiens, UniProt P08912); assay: PDSP radioligand binding, muscarinic receptor M5
T4 sequence (P08912 1-532): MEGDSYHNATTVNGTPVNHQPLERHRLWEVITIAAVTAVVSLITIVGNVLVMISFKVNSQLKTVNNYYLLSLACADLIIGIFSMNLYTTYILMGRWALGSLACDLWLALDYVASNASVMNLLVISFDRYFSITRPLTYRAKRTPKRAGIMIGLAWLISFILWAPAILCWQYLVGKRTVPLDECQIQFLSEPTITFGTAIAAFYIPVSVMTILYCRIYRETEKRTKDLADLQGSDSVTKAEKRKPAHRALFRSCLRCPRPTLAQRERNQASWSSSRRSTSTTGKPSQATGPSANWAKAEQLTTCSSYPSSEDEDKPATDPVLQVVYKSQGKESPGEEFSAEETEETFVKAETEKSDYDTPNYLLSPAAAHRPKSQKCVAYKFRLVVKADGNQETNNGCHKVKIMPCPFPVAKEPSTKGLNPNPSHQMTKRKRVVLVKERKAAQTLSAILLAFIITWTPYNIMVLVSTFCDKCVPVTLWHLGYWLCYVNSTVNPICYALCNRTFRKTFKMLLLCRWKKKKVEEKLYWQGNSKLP
Excerpt: as §1

[12] = molecular target: NMDA Receptor (MK-801 binding site); assay: PDSP radioligand binding, NMDA receptor
Excerpt: as §1

[13] = Table 2, read-out: NMDA (Ki) (converted)

Sequence of 5-ht1e (P28566 whole entry, species assumed): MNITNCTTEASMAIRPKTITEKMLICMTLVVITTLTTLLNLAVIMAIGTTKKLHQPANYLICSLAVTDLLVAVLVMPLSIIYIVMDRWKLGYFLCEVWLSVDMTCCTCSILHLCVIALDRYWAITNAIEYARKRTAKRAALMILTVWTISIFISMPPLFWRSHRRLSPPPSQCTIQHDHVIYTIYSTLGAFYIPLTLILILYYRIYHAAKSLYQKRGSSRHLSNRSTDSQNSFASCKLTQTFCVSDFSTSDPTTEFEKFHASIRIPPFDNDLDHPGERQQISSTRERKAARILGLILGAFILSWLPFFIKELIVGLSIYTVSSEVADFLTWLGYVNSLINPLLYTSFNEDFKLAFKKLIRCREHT

Structure (SMILES) | Ki [1] [µM] | Ki [2] [µM] | Ki [3] [µM] | Ki [4] [µM] | Ki [5] [µM] | Ki [6] [µM] | Ki [7] [µM] | Ki [8] [µM] | Ki [9] [µM] | Ki [10] [µM] | Ki [11] [µM] | Ki ([12]; Figure 3, N = 3 separate determinations, read-out: Ki in NMDA receptor assay) [µM] | Ki ([12]; Table S1, unit inferred, read-out: Ki NMDA) [µM] | NMDA pKi +/− SD ([12]; Table 2) | Ki [12, 13] [µM]
CCNC1(c2cccc(OC)c2)CCCCC1=O (racemic) [Methoxetamine, (RS)-2-(ethylamino)-2-(3-methoxyphenyl)cyclohexanone] | > 10 | > 10 | > 10 | > 10 | > 10 | > 10 | > 10 | > 10 | > 10 | > 10 | > 10 | 0.337 | 0.338 |  | 
COc1cccc(C2(N3CCCCC3)CCCCC2)c1 [3-MeO-PCP, 1-[1-(3-methoxyphenyl)cyclohexyl]piperidine] | > 10 | > 10 | > 10 | > 10 | > 10 | > 10 | > 10 | > 10 | > 10 | > 10 | > 10 |  |  | 7.69±0.08 | 0.02
COc1ccc(C2(N3CCCCC3)CCCCC2)cc1 [4-MeO-PCP, 1-[1-(4-methoxyphenyl)cyclohexyl]piperidine] | > 10 | > 10 | > 10 | > 10 | > 10 | > 10 | > 10 | > 10 | > 10 | > 10 | > 10 |  |  | 6.39±0.06 | 0.404

Source: publication PMC3602154 (PLoS ONE, 2013)
